{
  "source": "patent US8143212B2",
  "about": "(Vicuron Pharmaceuticals Inc., priority 2002, dated 2012)",
  "key": {"S. aureus": {"system": "S. aureus", "assay": "Murine thigh-infection model (time kill, dosing regimen, PK/PD; Tables 31, 32);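 also: mouse thigh infection, bacterial counts per thigh after therapy, dose-response curves fitted with a maximum effect model to give static and 1 or 2 log kill exposures, mean of 4 thighs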", "conditions": "for 1 log kill mg/kg / 2 log kill mg/kg: total dose over 6 days", "experimental": "The murine thigh-infection model was used for all organisms throughout the various studies. In this well-established model, approximately 10^6 Cfu of the study organisms are injected into one or both thighs (in 0.1 ml) two hours before starting therapy. The number of organisms in the thigh at the start of therapy in the following studies varied from 10^7.15-7.59 cfu/thigh.\nEach point represents the mean of 4 thighs. Five dose levels, ranging 16-fold were used. The dose levels used in the study against S. aureus ranged from 5 to 80 mg/kg.\nIn these studies, multiple dosing regimens varying the dose and dosage interval were administered intraperitoneally in 0.2 ml volumes to groups of mice for 144 h (6 days). The dosing intervals chosen were 12, 24, 36, and 72 hours. Five different doses (two-fold increases) were used. Study against S. aureus utilized total dose (mg/kg/6d) levels ranging from 30 to 480 mg/kg/6d. […] Each point represents the mean of 4 thighs.\nEach of the dose-response curves was also mathematically characterized using a maximum effect model. […] From these parameters we could then calculate the dose required to produce a net bacteriostatic effect over the 144 hour treatment period as well as the doses necessary to produce a 1 and 2 log-reduction in organism burden.\nWe determined which PK/PD parameter correlated best with efficacy by relating the number of bacteria in thigh at the end of 144 hours of therapy with [1] the peak/MIC ratio, [2] the AUC/MIC ratio, and [3] the percentage of the dosing interval that serum levels exceed the MIC for each of the dosage regimens studied. The PK/PD parameter values for those doses not specifically studied were extrapolated from the values of the nearest studied doses. […] Each point represents the mean of four thighs. […] The data illustrated in these figures were also analyzed by the same maximum dose-response model mentioned above, except that the different PK/PD parameters were used in place of the dose. The R^2 represents the coefficient of determination observed for the relationship between efficacy and each PK/PD parameter."}, "[1]": {"conditions": "human, in vivo"}},
  "data": [
    {"smiles": "CN[C@H]1C(=O)N[C@@H]2Cc3ccc(cc3)Oc3cc4cc(c3O[C@@H]3O[C@H](C(=O)O)[C@@H](O)[C@H](O)[C@H]3NC(=O)CCCCCCCCC(C)C)Oc3ccc(cc3Cl)[C@@H](O)[C@@H]3NC(=O)[C@H](NC(=O)[C@@H]4NC(=O)[C@@H](NC2=O)c2cc(cc(O)c2Cl)Oc2cc1ccc2O)c1ccc(O)c(c1)-c1c(O[C@H]2O[C@H](CO)[C@@H](O)[C@H](O)[C@@H]2O)cc(O)cc1[C@@H](C(=O)NCCCN(C)C)NC3=O", "note": "[Dalbavancin]", "values": [
      {"measurement": "1 Log Kill mg/kg/24 h", "setting": "S. aureus; SA25923, q 72 h regimen", "result": 185, "unit": "mg/kg/24 h"},
      {"measurement": "2 Log Kill f24AUC/MBC", "setting": "S. aureus; SA25923, q 72 h regimen", "result": 88.1},
      {"measurement": "2 Log Kill f24AUC/MIC", "setting": "S. aureus; SA25923, q 72 h regimen", "result": 367},
      {"measurement": "2 Log Kill mg/kg/24 h", "setting": "S. aureus; SA25923, q 72 h regimen", "result": 214, "unit": "mg/kg/24 h"},
      {"measurement": "Static Effect f24AUC/MBC", "setting": "S. aureus; SA25923, q 72 h regimen", "result": 66},
      {"measurement": "Static Effect f24AUC/MIC", "setting": "S. aureus; SA25923, q 72 h regimen", "result": 274},
      {"measurement": "Static Effect mg/kg/72 h", "setting": "S. aureus; SA25923, q 72 h regimen", "result": 160, "unit": "mg/kg/72 h"},
      {"measurement": "1 log kill mg/kg", "setting": "S. aureus; SA29213, q 24 h", "result": 267, "unit": "mg/kg"},
      {"measurement": "1 log kill mg/kg", "setting": "S. aureus; SA29213, q 36 h", "result": 36, "unit": "mg/kg"},
      {"measurement": "2 log kill mg/kg", "setting": "S. aureus; SA29213, q 36 h", "result": 122, "unit": "mg/kg"},
      {"measurement": "1 log kill mg/kg", "setting": "S. aureus; SA29213, q 72 h", "result": 31, "unit": "mg/kg"},
      {"measurement": "2 log kill mg/kg", "setting": "S. aureus; SA29213, q 72 h", "result": 128, "unit": "mg/kg"},
      {"measurement": "Static Effect f24AUC/MBC", "setting": "S. aureus; SA31005, q 24 h regimen", "result": 242},
      {"measurement": "Static Effect f24AUC/MIC", "setting": "S. aureus; SA31005, q 24 h regimen", "result": 483},
      {"measurement": "Static Effect mg/kg/24 h", "setting": "S. aureus; SA31005, q 24 h regimen", "result": 49.3, "unit": "mg/kg/24 h"},
      {"measurement": "1 Log Kill f24AUC/MBC", "setting": "S. aureus; SA31005, q 72 h regimen", "result": 163},
      {"measurement": "1 Log Kill f24AUC/MIC", "setting": "S. aureus; SA31005, q 72 h regimen", "result": 325},
      {"measurement": "1 Log Kill mg/kg/24 h", "setting": "S. aureus; SA31005, q 72 h regimen", "result": 94.6, "unit": "mg/kg/24 h"},
      {"measurement": "2 Log Kill f24AUC/MBC", "setting": "S. aureus; SA31005, q 72 h regimen", "result": 217},
      {"measurement": "2 Log Kill f24AUC/MIC", "setting": "S. aureus; SA31005, q 72 h regimen", "result": 364},
      {"measurement": "2 Log Kill mg/kg/24 h", "setting": "S. aureus; SA31005, q 72 h regimen", "result": 127, "unit": "mg/kg/24 h"},
      {"measurement": "Static Effect f24AUC/MBC", "setting": "S. aureus; SA31005, q 72 h regimen", "result": 112},
      {"measurement": "Static Effect f24AUC/MIC", "setting": "S. aureus; SA31005, q 72 h regimen", "result": 223},
      {"measurement": "Static Effect mg/kg/72 h", "setting": "S. aureus; SA31005, q 72 h regimen", "result": 67.7, "unit": "mg/kg/72 h"},
      {"measurement": "1 Log Kill f24AUC/MBC", "setting": "S. aureus; SA33591, q 24 h regimen", "result": 58.3},
      {"measurement": "1 Log Kill f24AUC/MIC", "setting": "S. aureus; SA33591, q 24 h regimen", "result": 121},
      {"measurement": "1 Log Kill mg/kg/24 h", "setting": "S. aureus; SA33591, q 24 h regimen", "result": 27.7, "unit": "mg/kg/24 h"},
      {"measurement": "2 Log Kill f24AUC/MBC", "setting": "S. aureus; SA33591, q 24 h regimen", "result": 74.3},
      {"measurement": "2 Log Kill f24AUC/MIC", "setting": "S. aureus; SA33591, q 24 h regimen", "result": 157},
      {"measurement": "2 Log Kill mg/kg/24 h", "setting": "S. aureus; SA33591, q 24 h regimen", "result": 33.5, "unit": "mg/kg/24 h"},
      {"measurement": "Static Effect f24AUC/MBC", "setting": "S. aureus; SA33591, q 24 h regimen", "result": 46},
      {"measurement": "Static Effect f24AUC/MIC", "setting": "S. aureus; SA33591, q 24 h regimen", "result": 96.2},
      {"measurement": "Static Effect mg/kg/24 h", "setting": "S. aureus; SA33591, q 24 h regimen", "result": 22.3, "unit": "mg/kg/24 h"},
      {"measurement": "1 Log Kill f24AUC/MBC", "setting": "S. aureus; SA33591, q 72 h regimen", "result": 76.6},
      {"measurement": "1 Log Kill f24AUC/MIC", "setting": "S. aureus; SA33591, q 72 h regimen", "result": 160},
      {"measurement": "1 Log Kill mg/kg/24 h", "setting": "S. aureus; SA33591, q 72 h regimen", "result": 93, "unit": "mg/kg/24 h"},
      {"measurement": "2 Log Kill f24AUC/MBC", "setting": "S. aureus; SA33591, q 72 h regimen", "result": 94},
      {"measurement": "2 Log Kill f24AUC/MIC", "setting": "S. aureus; SA33591, q 72 h regimen", "result": 195},
      {"measurement": "2 Log Kill mg/kg/24 h", "setting": "S. aureus; SA33591, q 72 h regimen", "result": 114, "unit": "mg/kg/24 h"},
      {"measurement": "Static Effect f24AUC/MBC", "setting": "S. aureus; SA33591, q 72 h regimen", "result": 59},
      {"measurement": "Static Effect f24AUC/MIC", "setting": "S. aureus; SA33591, q 72 h regimen", "result": 123},
      {"measurement": "Static Effect mg/kg/72 h", "setting": "S. aureus; SA33591, q 72 h regimen", "result": 74, "unit": "mg/kg/72 h"},
      {"measurement": "1 Log Kill f24AUC/MBC", "setting": "S. aureus; SA307109, q 72 h regimen", "result": 12.9},
      {"measurement": "1 Log Kill f24AUC/MIC", "setting": "S. aureus; SA307109, q 72 h regimen", "result": 108},
      {"measurement": "1 Log Kill mg/kg/24 h", "setting": "S. aureus; SA307109, q 72 h regimen", "result": 34, "unit": "mg/kg/24 h"},
      {"measurement": "2 Log Kill f24AUC/MBC", "setting": "S. aureus; SA307109, q 72 h regimen", "result": 14.6},
      {"measurement": "2 Log Kill f24AUC/MIC", "setting": "S. aureus; SA307109, q 72 h regimen", "result": 121},
      {"measurement": "2 Log Kill mg/kg/24 h", "setting": "S. aureus; SA307109, q 72 h regimen", "result": 37, "unit": "mg/kg/24 h"},
      {"measurement": "Static Effect f24AUC/MBC", "setting": "S. aureus; SA307109, q 72 h regimen", "result": 11.3},
      {"measurement": "Static Effect f24AUC/MIC", "setting": "S. aureus; SA307109, q 72 h regimen", "result": 94},
      {"measurement": "Static Effect mg/kg/72 h", "setting": "S. aureus; SA307109, q 72 h regimen", "result": 31, "unit": "mg/kg/72 h"},
      {"measurement": "1 Log Kill f24AUC/MBC", "setting": "S. aureus; SA Smith, q 24 h regimen", "result": 119},
      {"measurement": "1 Log Kill f24AUC/MIC", "setting": "S. aureus; SA Smith, q 24 h regimen", "result": 248},
      {"measurement": "1 Log Kill mg/kg/24 h", "setting": "S. aureus; SA Smith, q 24 h regimen", "result": 50.7, "unit": "mg/kg/24 h"},
      {"measurement": "2 Log Kill f24AUC/MBC", "setting": "S. aureus; SA Smith, q 24 h regimen", "result": 173},
      {"measurement": "2 Log Kill f24AUC/MIC", "setting": "S. aureus; SA Smith, q 24 h regimen", "result": 361},
      {"measurement": "2 Log Kill mg/kg/24 h", "setting": "S. aureus; SA Smith, q 24 h regimen", "result": 73.5, "unit": "mg/kg/24 h"},
      {"measurement": "Static Effect f24AUC/MBC", "setting": "S. aureus; SA Smith, q 24 h regimen", "result": 75},
      {"measurement": "Static Effect f24AUC/MIC", "setting": "S. aureus; SA Smith, q 24 h regimen", "result": 156},
      {"measurement": "Static Effect mg/kg/24 h", "setting": "S. aureus; SA Smith, q 24 h regimen", "result": 33.5, "unit": "mg/kg/24 h"},
      {"measurement": "1 Log Kill f24AUC/MBC", "setting": "S. aureus; SA Smith, q 72 h regimen", "result": 78.0},
      {"measurement": "1 Log Kill f24AUC/MIC", "setting": "S. aureus; SA Smith, q 72 h regimen", "result": 163},
      {"measurement": "1 Log Kill mg/kg/24 h", "setting": "S. aureus; SA Smith, q 72 h regimen", "result": 95, "unit": "mg/kg/24 h"},
      {"measurement": "2 Log Kill f24AUC/MBC", "setting": "S. aureus; SA Smith, q 72 h regimen", "result": 22},
      {"measurement": "2 Log Kill f24AUC/MIC", "setting": "S. aureus; SA Smith, q 72 h regimen", "result": 254},
      {"measurement": "2 Log Kill mg/kg/24 h", "setting": "S. aureus; SA Smith, q 72 h regimen", "result": 148, "unit": "mg/kg/24 h"},
      {"measurement": "Static Effect f24AUC/MBC", "setting": "S. aureus; SA Smith, q 72 h regimen", "result": 46.1},
      {"measurement": "Static Effect f24AUC/MIC", "setting": "S. aureus; SA Smith, q 72 h regimen", "result": 96},
      {"measurement": "Static Effect mg/kg/72 h", "setting": "S. aureus; SA Smith, q 72 h regimen", "result": 59, "unit": "mg/kg/72 h"},
      {"measurement": "drop in cfu", "setting": "S. aureus; all strains, 6 day study", "result": "> 4", "unit": "log10"},
      {"measurement": "free drug 24 h AUC/MIC associated with a static effect", "setting": "S. aureus; every 24 h dosing", "result": "265±143"},
      {"measurement": "free drug 24 h AUC/MIC associated with a static effect", "setting": "S. aureus; every 72 h dosing", "result": "160±67"},
      {"measurement": "free drug AUC/MIC required for efficacy", "setting": "S. aureus; over the 6 days", "result": "~1000"},
      {"measurement": "extent of killing", "setting": "S. aureus; single doses, highest doses studied", "result": "> 2", "unit": "log"},
      {"measurement": "plasma concentration, all patients", "setting": "[1]", "result": "greater than 20 mg/l"}
    ]}
  ]
}
